Results: publication PMC10327353 (Breast Cancer Research : BCR, 2023)
“And” between values parts separate entries of the source, which are not always exact repeats. Equal values may be shown once.

Test: Phase 1 study: safety and tolerability
Type: in vivo
Procedure: The maximum tolerated dose (MTD) of DZD1516 was defined based on safety data and the Bayesian optimal interval (BOIN) design (Additional file 1). The definition of DLT is provided in Additional file 1.
The AE grading was assessed according to the NCI-Common Terminology Criteria for Adverse Events (CTCAE) (version 5.0) and was monitored until 28 days after the last dose.
Eligible patients received single oral dosing of DZD1516 on Cycle 0 Day 1 (C0D1), followed by a 7-day washout. Twice daily oral dosing (bid) of DZD1516 was commenced from C1D1 in a continuous 21-day cycle until disease progression, unacceptable toxicity, or withdrawal of consent. All doses were taken under fed conditions (within 30 minutes after a meal).
Planned dosing consisted of 25, 50, 100, 200, 300, and 400 mg. Each dose escalation cohort will comprise a minimum of three and a maximum of six evaluable patients (except only one patient in the starting dose cohort). The maximum tolerated dose of DZD1516 was defined according to safety data and the Bayesian optimal interval (BOIN) design. Dose escalation/de-escalation rule with target toxicity rate for the MTD is 0.30 with interval of (0.20, 0.33).
DLTs were any adverse event (AE) not clearly attributable to the patient’s disease, including ≥ grade 4 hematological toxicities present for ≥ 4 days, grade 3 thrombocytopenia with bleeding, or grade 4 thrombocytopenia lasting for > 5 days, ≥ grade 3 non-hematological toxicities that is dose-limiting in the judgment of the investigators. Any other toxicity that is greater than that at baseline, is clinically significant or unacceptable, and is judged to be a DLT by the SRC. Exceptions included alopecia of any grade and isolated grade 3 laboratory change without clinical sequelae or clinical significance.
Safety evaluations were conducted at screening, on Day 1, 8, and 15 of Cycle 1, on Day 1 of each subsequent treatment cycle, at the end-of-treatment visit, and clinically indicated. Safety assessments included clinical laboratory measurements (hematology, chemistry, coagulation, and urinalysis), electrocardiogram (ECG), Echocardiogram/MUGA scan, ECOG performance status, vital signs, and physical examinations.

COc1cc(O[C@H]2CCN(C)CC2(F)F)c2c(Nc3ccc(Oc4ccn5ncnc5c4)c(C)c3)ncnc2c1 [DZD1516]
Decreased appetite, ≥ Grade 3 (300 mg (N = 4)): 0 (0.0) n (%) | Dizziness, Any Grade (300 mg (N = 4)): 1 (25.0) n (%) | Dizziness, ≥ Grade 3 (300 mg (N = 4)): 1 (25.0) n (%) | Drug-related TEAE: Grade 3 (300 mg (N = 4)): 2 (50.0) n (%) | Drug-related TEAE: Leading to death (300 mg (N = 4)): 0 (0.0) n (%) | Drug-related TEAE: Leading to dose reduction (300 mg (N = 4)): 3 (75.0) n (%) | Drug-related TEAE: Leading to treatment discontinuation (300 mg (N = 4)): 0 (0.0) n (%) | Drug-related TEAE: Leading to treatment interruption (300 mg (N = 4)): 2 (50.0) n (%) | Drug-related TEAE: SAE (300 mg (N = 4)): 0 (0.0) n (%) | Fatigue, Any Grade (300 mg (N = 4)): 1 (25.0) n (%) | Fatigue, ≥ Grade 3 (300 mg (N = 4)): 1 (25.0) n (%) | Gastrointestinal disorders, Any Grade (300 mg (N = 4)): 4 (100.0) n (%) | Gastrointestinal disorders, ≥ Grade 3 (300 mg (N = 4)): 1 (25.0) n (%) | General disorders and administration site conditions, Any Grade (300 mg (N = 4)): 3 (75.0) n (%) | General disorders and administration site conditions, ≥ Grade 3 (300 mg (N = 4)): 2 (50.0) n (%) | Headache, Any Grade (300 mg (N = 4)): 4 (100.0) n (%) | Headache, ≥ Grade 3 (300 mg (N = 4)): 0 (0.0) n (%) | Hemoglobin decreased, Any Grade (300 mg (N = 4)): 0 (0.0) n (%) | Hemoglobin decreased, ≥ Grade 3 (300 mg (N = 4)): 0 (0.0) n (%) | Investigations, Any Grade (300 mg (N = 4)): 1 (25.0) n (%) | Investigations, ≥ Grade 3 (300 mg (N = 4)): 0 (0.0) n (%) | Lipase increased, Any Grade (300 mg (N = 4)): 0 (0.0) n (%) | Lipase increased, ≥ Grade 3 (300 mg (N = 4)): 0 (0.0) n (%) | Malaise, Any Grade (300 mg (N = 4)): 1 (25.0) n (%) | Malaise, ≥ Grade 3 (300 mg (N = 4)): 1 (25.0) n (%) | Metabolism and nutrition disorders, Any Grade (300 mg (N = 4)): 3 (75.0) n (%) | Metabolism and nutrition disorders, ≥ Grade 3 (300 mg (N = 4)): 0 (0.0) n (%) | Musculoskeletal and connective tissue disorders, Any Grade (300 mg (N = 4)): 3 (75.0) n (%) | Musculoskeletal and connective tissue disorders, ≥ Grade 3 (300 mg (N = 4)): 1 (25.0) n (%) | Nausea, Any Grade (300 mg (N = 4)): 4 (100.0) n (%) | Nausea, ≥ Grade 3 (300 mg (N = 4)): 1 (25.0) n (%) | Nervous system disorders, Any Grade (300 mg (N = 4)): 4 (100.0) n (%) | Nervous system disorders, ≥ Grade 3 (300 mg (N = 4)): 2 (50.0) n (%) | Participants with any TEAE, Any Grade (300 mg (N = 4)): 4 (100.0) n (%) | Participants with any TEAE, ≥ Grade 3 (300 mg (N = 4)): 3 (75.0) n (%) | Platelet count decreased, Any Grade (300 mg (N = 4)): 0 (0.0) n (%) | Platelet count decreased, ≥ Grade 3 (300 mg (N = 4)): 0 (0.0) n (%) | Proteinuria, Any Grade (300 mg (N = 4)): 1 (25.0) n (%) | Proteinuria, ≥ Grade 3 (300 mg (N = 4)): 0 (0.0) n (%) | Renal and urinary disorders, Any Grade (300 mg (N = 4)): 1 (25.0) n (%) | Renal and urinary disorders, ≥ Grade 3 (300 mg (N = 4)): 0 (0.0) n (%) | Subjects with any TEAE (300 mg (N = 4)): 4 (100.0) n (%) | Subjects with any drug-related TEAE (300 mg (N = 4)): 4 (100.0) n (%) | Vomiting, Any Grade (300 mg (N = 4)): 3 (75.0) n (%) | Vomiting, ≥ Grade 3 (300 mg (N = 4)): 1 (25.0) n (%) | White blood cell count decreased, Any Grade (300 mg (N = 4)): 0 (0.0) n (%) | White blood cell count decreased, ≥ Grade 3 (300 mg (N = 4)): 0 (0.0) n (%) | diarrhea (300 mg cohort): A single case of grade 2 diarrhea | dose-limiting toxicities (DLTs) (300 mg cohort): two out of four patients experienced DLTs | dose-limiting toxicity (DLT) (25–200 mg cohorts): no dose-limiting toxicity (DLT) observed | diarrhea or skin rash (MTD (250 mg) or lower doses): No diarrhea or skin rash of any grade was observed | Alanine aminotransferase increased, Any Grade (Total (N = 23)): 3 (13.0) n (%) | Alanine aminotransferase increased, ≥ Grade 3 (Total (N = 23)): 0 (0.0) n (%) | Anemia, Any Grade (Total (N = 23)): 3 (13.0) n (%) | Anemia, ≥ Grade 3 (Total (N = 23)): 0 (0.0) n (%) | Any TEAE: Grade 3 (Total (N = 23)): 6 n (%) and 6 (26.1) n (%) | Any TEAE: Leading to death (Total (N = 23)): 0 (0.0) n (%) | Any TEAE: Leading to dose reduction (Total (N = 23)): 3 n (%) and 3 (13.0) n (%) | Any TEAE: Leading to treatment discontinuation (Total (N = 23)): 1 (4.3) n (%) | Any TEAE: Leading to treatment interruption (Total (N = 23)): 5 n (%) and 5 (21.7) n (%)
